Reference: ChEMBL document CHEMBL5584234, “Small molecules that regulate the N6-methyladenosine RNA modification as potential anti-cancer agents” (Eur J Med Chem, 2024)
Structures can show the parent of a compound that is named as a salt. Each block holds one compound with its values, some of them ahead of it.

Columns and labels:
[1] = target: T1, Alpha-ketoglutarate-dependent dioxygenase FTO (Homo sapiens, UniProt Q9C0B1)
[2] = target: T1, Alpha-ketoglutarate-dependent dioxygenase FTO; remark: listed apart in the source
cells = details: Homo sapiens, AML1
RNA demethylase ALKBH5 = RNA demethylase ALKBH5 (Homo sapiens, UniProt Q6P6C2)
[3] = target: T2, N6-adenosine-methyltransferase catalytic subunit (Homo sapiens, UniProt Q86U44)
[4] = target: T2, N6-adenosine-methyltransferase catalytic subunit; remark: listed apart in the source
[5] = target: T2, N6-adenosine-methyltransferase catalytic subunit; remark: listed apart in the source
Huh-7 = test: cells; details: Homo sapiens
[6] = target: T1, Alpha-ketoglutarate-dependent dioxygenase FTO; remark: listed apart in the source
[7] = target: N(6)-adenosine-methyltransferase catalytic subunit METTL3 (Mus musculus, UniProt Q8C3P7)
METTL3/METTL14 [8] = target: T3, METTL3/METTL14 (Homo sapiens, UniProt Q86U44)
METTL3/METTL14 [9] = target: T3, METTL3/METTL14; remark: listed apart in the source
[10] = target: T2, N6-adenosine-methyltransferase catalytic subunit; remark: listed apart in the source
ECa-109 cell line = test: cells; details: Homo sapiens, ECa-109, 72 h
HeLa = test: cells; details: Homo sapiens, 24 h
OCI-AML2 = test: cells; details: Homo sapiens
[11] = target: YTH domain-containing protein 1 (Homo sapiens, UniProt Q96MU7)
METTL3/METTL14 [12] = target: T3, METTL3/METTL14; remark: listed apart in the source

Structure (SMILES): O=C(O)c1ccccc1-c1c2cc(Cl)c(=O)cc-2oc2cc(O)c(Cl)cc12
- IC50 [1]: 640 nM

Structure (SMILES): O=C(O)CC[C@@H](O)C(=O)O
- IC50 [2]: 133000 nM

Structure (SMILES): Cc1noc(C)c1-c1cc(Cl)c(Nc2ccccc2C(=O)NO)c(Cl)c1
- GI50 (cells): 800 nM

Structure (SMILES): Cc1noc(C)c1-c1cc(Cl)c(Nc2ccccc2C(=O)O)c(Cl)c1
- GI50 (cells): 23000 nM

Structure (SMILES): Cn1ccc(-c2cn([C@@H]3O[C@H](COc4ccc5ccc(N6CCC6)nc5c4)[C@@H](O)[C@@H]3F)c3ncnc(N)c23)n1
- IC50 [3]: < 1000 nM
- IC50 [4]: < 10 nM
- IC50 [5]: < 10 nM
- GI50 (Huh-7): < 1000 nM

Structure (SMILES): Nc1ncnc2c1ncn2[C@@H]1O[C@H](C(=O)NCCCNC(=O)c2ccccn2)[C@@H](O)[C@H]1O
- IC50 [6]: 1500 nM

Structure (SMILES): O=C(NCc1cn2cc(CNCC3CCCCC3)ccc2n1)c1cc(=O)n2ccccc2n1
- GI50 (Huh-7): 600 nM
- IC50 [7]: 2810 nM

Structure (SMILES): O=C(O)c1ccccc1OCCc1cn(-c2ccc(-c3c(Cl)cccc3Cl)cc2)c2ccc(-c3ccc(F)cc3)cc12
- IC50 [3]: 4000 nM
- IC50 [10]: 4000 nM
- IC50 [5]: 2810 nM
- GI50 (Huh-7): 14600 nM

Structure (SMILES): COc1c(C)cnc(Cn2cc(CNC(=O)c3c(F)c(F)c(F)c(F)c3F)nn2)c1C
- IC50 (ECa-109 cell line): 830 nM

Structure (SMILES): C(=N\NC1=NCCN1)/c1c2ccccc2c(/C=N/NC2=NCCN2)c2ccccc12 [BISANTRENE]
- IC50 (OCI-AML2): 100 nM

Structure (SMILES): CC(=O)Oc1cccc2c1C(=O)c1c(OC(C)=O)cc(C(=O)O)cc1C2=O [DIACEREIN]
- IC50 [6]: 1500 nM

Structure (SMILES): O=c1c2ccccc2[se]n1-c1ccccc1 [EBSELEN]
- IC50 [11]: 1600 nM

Structure (SMILES): N=C(N)c1ccc2cc(OC(=O)c3ccc(N=C(N)N)cc3)ccc2c1 [NAFAMOSTAT MESYLATE]
- IC50 [6]: 13800 nM

Structure (SMILES): Nc1ncnc2c1ncn2[C@@H]1O[C@H](CSCC[C@H](N)C(=O)O)[C@@H](O)[C@H]1O [S-ADENOSYLHOMOCYSTEINE]
- IC50 (METTL3/METTL14 [12]): 520 nM

Structure (SMILES): O=C(O)[C@H]1O[C@@H](Oc2cc3oc(-c4ccc(O)cc4)cc(=O)c3c(O)c2O)[C@H](O)[C@@H](O)[C@@H]1O [SCUTELLARIN]
- IC50 (METTL3/METTL14 [8]): 19900 nM

Structure (SMILES): Nc1ncnc2c1ncn2[C@@H]1O[C@H](C[C@@H](N)CC[C@H](N)C(=O)O)[C@@H](O)[C@H]1O [SINEFUNGIN]
- IC50 (METTL3/METTL14 [12]): 1300 nM
- GI50 (Huh-7): 24800 nM

More lines, now with the values ahead:

- IC50 (RNA demethylase ALKBH5): 10000 nM
Structure (SMILES): CCCc1c(C)nc2c3ccccc3oc(=S)n12

- IC50 [3]: < 1000 nM
- IC50 [4]: < 10 nM
- IC50 [5]: < 10 nM
- GI50 (Huh-7): < 1000 nM
Structure (SMILES): CCc1cc(N(C)CCOC)c2ccc(CCc3cncc(-n4cc(-c5ccn(C)n5)c5c(N)ncnc54)c3)cc2n1

- GI50 (Huh-7): 160 nM
- IC50 (METTL3/METTL14 [8]): < 5 nM
Structure (SMILES): COc1cc(-c2cn(Cc3cn4cc(CNCC5CCC5)ccc4n3)nn2)c2cn[nH]c2c1

- IC50 (METTL3/METTL14 [8]): 8 nM
Structure (SMILES): CC1(C)CCN(Cc2ccc3nc(Cn4cc(-c5cc(Br)cc6[nH]ncc56)nn4)cn3c2)CC1

- GI50 (Huh-7): 210 nM
- IC50 (METTL3/METTL14 [9]): 25 nM
- IC50 (METTL3/METTL14 [8]): < 5 nM
Structure (SMILES): Clc1cc(-c2cn(Cc3cn4cc(CNCC5CCC5)ccc4n3)nn2)c2cn[nH]c2c1

- IC50 [4]: 7000 nM
Structure (SMILES): CCOC(=O)c1ccccc1Nc1c(Cl)ccc(C)c1Cl

- IC50 [2]: 3400 nM
Structure (SMILES): COc1ncc(-c2ccc3sc(N)nc3c2)cn1

- IC50 (HeLa): 8700 nM
Structure (SMILES): CCS(=O)(=O)Nc1oc(-c2ccc(Cl)cc2)c(O)c1O

- IC50 (OCI-AML2): 200 nM
Structure (SMILES): Cc1c(-c2ccc(-c3ccccc3F)cc2)nc2ccc(F)cc2c1C(=O)O [BREQUINAR]

- IC50 [4]: 8000 nM
Structure (SMILES): Cc1ccc(Cl)c(Nc2ccccc2C(=O)O)c1Cl [MECLOFENAMIC ACID]
